Data: patent US4217305A, “Phenylethanolamine derivatives” (Yamanouchi Pharmaceutical Co., Ltd., priority 1977, dated 1980)

Experiments:
Assay type in all cases: in vivo
[1] = tested on: β-Adrenergic; assay: β-Adrenergic blocking action: antagonism of isoproterenol induced tachycardia in rats; settings: Rattus norvegicus, iv; reserpine pretreated, pentobarbital anesthetized rats; isoproterenol 0.1 μg/Kg iv.
Procedure: Bilateral vagotomy was performed at the neck. The effects of the test samples to antagonize the isoproterenol (0.1 μg/Kg iv.) induced tachycardia were measured and the results were shown in Table I.

[2] = tested on: spontaneously hypertensive rats; assay: Antihypertensive effects in spontaneously hypertensive rats, oral administration; settings: at 10 mg/Kg p.o.; mean ± S.E. of 5 to 10 animals; measured indirectly from the tail
Procedure: B. Antihypertensive effects in spontaneously hypertensive rats: Oral administration: The systolic blood pressure was measured indirectly from the tail using a programmed electro-sphygmanometer (Nacro Bio-Systems Inc., PE-300) on spontaneously hypertensive rats having a systolic blood pressure of higher than 150 mmHg, the result being shown in Table II.

[3] = tested on: α-Adrenergic; assay: α-Adrenergic blocking action: antagonism of hypertensive response to phenylephrine in anesthetized rats; settings: Rattus norvegicus, iv; urethane anesthetized, pentolinium treated rats; phenylephrine 10 μg/Kg i.v.; read-out: α-blocking (Rat) ED50
Procedure: A. α-Adrenergic blocking action: (a) The blood pressure was measured in rats anesthetized with urethane and treated with pentolinium.

Structure (SMILES)	ED50 [1] [mg/kg]	antihypertensive effect: change in systolic blood pressure [2] [mmHg]	ED50 [3] [mg/kg]
COc1ccccc1OCC(C)NCC(O)c1ccc(OC)c(S(N)(=O)=O)c1.Cl (stereo not drawn) [Example 34, 5-{1-Hydroxy-2-[2-(2-methoxyphenoxy)-1-methylethylamino]-ethyl}-2-methoxybenzenesulfonamide hydrochloride]	0.28	-20 ± 4.3	0.068
Cc1ccc(C(O)CNC(C)COc2ccccc2O)cc1S(N)(=O)=O.Cl (stereo not drawn) [Example 41, 5-{1-Hydroxy-2-[2-(2-hydroxyphenoxy)-1-methylethylamino]-ethyl}-2-methylbenzenesulfonamide hydrochloride]	0.044	-30 ± 4.9	0.66
